Consider one compound from patent publication US12606561B2, “Substituted pyrazolo[1,5-a][1,3,5]triazines as CDK inhibitors” (QURIENT CO., LTD., priority 2018, dated 2026).

In one assay the target is T1, CDK5/p25 (Homo sapiens, UniProt Q00535).
T1 construct: purchased Invitrogen PR8543B
In words: Enzymatic assay for CDK5 (LANCE Ultra kinase assay, FRET based). The following applies: ATP at Km. Format: biochemical. In short, it runs like this:
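TR-FRET kinase assay at ATP Km with ULight-MBP peptide (68 nM) and Eu-anti-phospho-MBP antibody; CDK2/Cyclin A at […], CDK5/p25 at […]. 8-dose 4-fold compound dilutions; 60 min kinase reaction at 23° C., EDTA stop, 60 min detection, read at 615/665 nm.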

The next assay has as its system OVCAR-3. As to the kind of experiment: OVCAR-3 viability assay (CellTiter-Glo, 72 hours). It is filed as cell-based. The following applies: Homo sapiens; OVCAR-3 cells. In a few lines: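 Each line was plated at its own density (1×10^4, 5×10^3 and 1×10^3 cells/well for MV4-11, OVCAR-3 and A2780 respectively) in RPMI-1640 with 10% FBS. Treatment with compound, 0.0015 uM to 10 uM and DMSO under 0.1%, lasted 72 h. Surviving cells were quantified by CellTiter-Glo.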
Background: Cellular ATP, detected with luciferase, serves as a proxy for viable cell number.

The target in assay [1] is T2, 28 CDKs family protein kinases (Homo sapiens, UniProt P06493).
T2 construct: purchased ProQinase GmbH; host or cells: Sf9 insect cells or E. coli
In words: In vitro IC50 profile for CDKs family kinase (33PanQinase Activity Assay, ProQinase). Format: biochemical. The following applies: read-out: CDK7 selectivity profile in CDKs family, IC50. The method, then: (§1) The IC50 profile of compound 11 was determined using 28 CDKs family protein kinases through ProQinase GmbH (Freiburg, Germany). All the protocol and materials had been provided by ProQinase GmbH. Briefly, in the process, 90 μl H2O were added to each well of a compound dilution plate. To minimize potential precipitation, the H2O was added to the plate only a few minutes before the transfer of the compound solutions into the assay plates. The plate was shaken thoroughly, resulting in a “compound dilution plate/10% DMSO”. The compound dilution plate(s) were discarded at the end of the working day. For the assays (see below), 5 μl solution from each well of the compound dilution plate were transferred into the assay plates. The final volume of the assay was 50 μl. All compounds were tested at 10 final assay concentrations in the range from 1×10^−05 M to 3×10^−10 M. The final DMSO concentration in the reaction cocktails was 1% in all cases. All protein kinases provided by ProQinase were expressed in Sf9 insect cells or in E. coli as recombinant GST-fusion proteins or His-tagged proteins, either as full-length or enzymatically active fragments. All kinases were produced from human cDNAs and purified by either GSH affinity chromatography or immobilized metal affinity chromatography. The purity of the protein kinases was examined by SDS-PAGE/Coomassie staining, the identity was checked by mass spectroscopy. Kinases from external vendors, Carna Biosciences Inc.; Invitrogen Corp.; and Millipore Corp., were expressed, purified and quality-controlled by virtue of the vendors readings. A radiometric protein kinase assay (33PanQinase® Activity Assay) was used for measuring the kinase activity of the 28 protein kinases. All kinase assays were performed in 96-well FlashPlates™ from PerkinElmer (Boston, MA, USA) in a 50 μl reaction volume. The reaction cocktails were incubated at 30° C. for 60 minutes. The reaction was stopped with 50 μl of 2% (v/v) H3PO4, plates were aspirated and washed two times with 200 μl 0.9% (w/v) NaCl. Incorporation of ^33Pi was determined with a microplate scintillation counter (Microbeta, Wallac). All assays were performed with a BeckmanCoulter/SAGIAN™ Core System. As part of the data evaluation the low control value from a particular plate was subtracted from the high control value as well as from all 80 “compound values” of the corresponding plate. The residual activity (in %) for each well of a particular plate was calculated by using the following formula: Res. Activity (%)=100×[(cpm of compound−low control)/(high control−low control)].

For assay [2], the target named is T3, 28 CDKs family protein kinases (Homo sapiens, UniProt P11802).
T3 construct: purchased ProQinase GmbH; host or cells: Sf9 insect cells or E. coli
The description is as above. Format: biochemical. The following applies: read-out: CDK7 selectivity profile in CDKs family, IC50. As to the method: as §1

The target of assay [3] is T4, 28 CDKs family protein kinases (Homo sapiens, UniProt P49336).
T4 construct: purchased ProQinase GmbH; host or cells: Sf9 insect cells or E. coli
T4 sequence (P49336 whole entry): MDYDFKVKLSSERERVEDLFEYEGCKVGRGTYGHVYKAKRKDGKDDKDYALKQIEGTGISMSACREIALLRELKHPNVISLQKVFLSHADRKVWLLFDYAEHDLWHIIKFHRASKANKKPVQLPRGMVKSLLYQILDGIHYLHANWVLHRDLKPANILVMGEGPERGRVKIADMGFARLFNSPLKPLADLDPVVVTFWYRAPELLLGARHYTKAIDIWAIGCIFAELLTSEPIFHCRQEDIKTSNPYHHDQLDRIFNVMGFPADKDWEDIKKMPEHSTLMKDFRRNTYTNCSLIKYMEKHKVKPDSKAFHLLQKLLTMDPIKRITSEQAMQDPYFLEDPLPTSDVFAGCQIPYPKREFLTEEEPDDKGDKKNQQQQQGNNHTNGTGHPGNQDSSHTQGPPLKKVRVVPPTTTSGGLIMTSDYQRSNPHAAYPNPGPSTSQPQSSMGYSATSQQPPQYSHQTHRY
T4 sequence (P24863 whole entry partner): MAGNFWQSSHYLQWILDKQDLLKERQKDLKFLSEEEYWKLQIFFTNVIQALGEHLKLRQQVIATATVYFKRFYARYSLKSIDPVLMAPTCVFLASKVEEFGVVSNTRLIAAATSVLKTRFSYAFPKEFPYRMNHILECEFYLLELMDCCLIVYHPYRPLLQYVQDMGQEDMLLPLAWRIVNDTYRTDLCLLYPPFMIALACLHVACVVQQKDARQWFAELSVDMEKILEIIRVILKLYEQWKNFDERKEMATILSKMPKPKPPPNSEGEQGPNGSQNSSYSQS
Described as above. It is filed as biochemical. The following applies: CDK8/CycC; read-out: CDK7 selectivity profile in CDKs family, IC50. The method, then: as §1

Assay [4] has as its target T5, 28 CDKs family protein kinases (Homo sapiens, UniProt Q14004).
T5 construct: purchased ProQinase GmbH; host or cells: Sf9 insect cells or E. coli
The assay is described as above. Format: biochemical. As to the method:
as §1

Where two headings read alike, the source gives them in different places.

T5 sequence (Q14004 whole entry): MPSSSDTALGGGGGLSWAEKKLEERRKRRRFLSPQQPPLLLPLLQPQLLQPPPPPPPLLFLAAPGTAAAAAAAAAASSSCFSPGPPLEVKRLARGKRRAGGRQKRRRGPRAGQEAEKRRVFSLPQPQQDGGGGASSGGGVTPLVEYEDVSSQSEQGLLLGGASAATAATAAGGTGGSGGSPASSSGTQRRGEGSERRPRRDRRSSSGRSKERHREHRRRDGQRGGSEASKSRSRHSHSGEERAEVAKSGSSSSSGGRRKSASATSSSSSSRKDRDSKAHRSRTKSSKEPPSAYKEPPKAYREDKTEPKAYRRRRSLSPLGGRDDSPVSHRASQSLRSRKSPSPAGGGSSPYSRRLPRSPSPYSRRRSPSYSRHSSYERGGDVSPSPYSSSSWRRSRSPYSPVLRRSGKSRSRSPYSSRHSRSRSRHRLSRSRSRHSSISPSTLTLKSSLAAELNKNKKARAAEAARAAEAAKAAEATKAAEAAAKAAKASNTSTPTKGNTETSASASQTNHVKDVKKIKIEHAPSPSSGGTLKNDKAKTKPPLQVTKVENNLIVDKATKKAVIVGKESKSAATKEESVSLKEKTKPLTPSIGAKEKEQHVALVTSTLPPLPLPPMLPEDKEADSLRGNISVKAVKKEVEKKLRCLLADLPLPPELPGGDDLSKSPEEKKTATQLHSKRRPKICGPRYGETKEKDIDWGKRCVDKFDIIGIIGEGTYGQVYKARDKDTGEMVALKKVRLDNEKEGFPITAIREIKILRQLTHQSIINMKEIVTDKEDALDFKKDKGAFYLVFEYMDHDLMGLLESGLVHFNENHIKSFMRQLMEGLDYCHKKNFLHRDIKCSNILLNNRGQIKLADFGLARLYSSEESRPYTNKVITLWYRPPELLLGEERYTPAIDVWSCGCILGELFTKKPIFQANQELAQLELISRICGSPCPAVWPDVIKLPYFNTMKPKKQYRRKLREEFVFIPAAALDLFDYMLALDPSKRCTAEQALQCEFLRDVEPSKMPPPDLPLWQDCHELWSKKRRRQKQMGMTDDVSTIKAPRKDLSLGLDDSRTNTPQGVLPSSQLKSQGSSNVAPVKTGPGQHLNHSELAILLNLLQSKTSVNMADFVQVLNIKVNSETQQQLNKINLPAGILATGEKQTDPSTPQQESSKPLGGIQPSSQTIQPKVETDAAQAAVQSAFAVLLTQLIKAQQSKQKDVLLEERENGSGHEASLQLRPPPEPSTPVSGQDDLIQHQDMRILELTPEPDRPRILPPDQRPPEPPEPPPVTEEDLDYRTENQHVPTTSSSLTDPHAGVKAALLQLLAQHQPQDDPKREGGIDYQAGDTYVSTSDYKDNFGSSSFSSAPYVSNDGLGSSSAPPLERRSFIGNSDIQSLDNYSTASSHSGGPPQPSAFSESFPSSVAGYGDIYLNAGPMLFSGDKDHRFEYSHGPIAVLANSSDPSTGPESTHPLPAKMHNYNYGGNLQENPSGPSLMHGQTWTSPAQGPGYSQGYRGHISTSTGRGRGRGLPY
T5 sequence (O75909 whole entry partner): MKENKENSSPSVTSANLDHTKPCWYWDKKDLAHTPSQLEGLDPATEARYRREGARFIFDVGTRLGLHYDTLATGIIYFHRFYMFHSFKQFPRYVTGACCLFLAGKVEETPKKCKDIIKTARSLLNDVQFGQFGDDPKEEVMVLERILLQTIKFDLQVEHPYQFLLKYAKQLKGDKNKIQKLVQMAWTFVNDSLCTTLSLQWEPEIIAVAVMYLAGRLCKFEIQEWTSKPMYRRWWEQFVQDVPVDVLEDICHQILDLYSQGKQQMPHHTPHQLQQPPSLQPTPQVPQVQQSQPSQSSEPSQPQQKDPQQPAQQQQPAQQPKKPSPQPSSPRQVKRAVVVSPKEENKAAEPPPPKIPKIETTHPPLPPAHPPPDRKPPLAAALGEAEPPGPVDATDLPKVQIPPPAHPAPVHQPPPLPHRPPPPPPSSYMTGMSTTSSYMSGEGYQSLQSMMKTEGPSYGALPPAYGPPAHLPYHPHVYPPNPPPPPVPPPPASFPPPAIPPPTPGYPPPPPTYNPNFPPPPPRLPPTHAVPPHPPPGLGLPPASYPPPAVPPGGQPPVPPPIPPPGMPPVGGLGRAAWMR
T1 sequence (Q00535 whole entry): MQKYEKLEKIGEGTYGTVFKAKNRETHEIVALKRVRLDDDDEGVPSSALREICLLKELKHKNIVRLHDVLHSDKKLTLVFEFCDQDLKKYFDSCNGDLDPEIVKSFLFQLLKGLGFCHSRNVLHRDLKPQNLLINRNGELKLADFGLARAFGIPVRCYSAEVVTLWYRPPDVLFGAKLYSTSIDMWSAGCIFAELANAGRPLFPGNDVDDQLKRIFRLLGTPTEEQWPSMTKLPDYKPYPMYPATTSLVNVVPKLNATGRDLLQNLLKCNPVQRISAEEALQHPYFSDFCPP
T1 sequence (Q15078 99-307 partner limits assumed): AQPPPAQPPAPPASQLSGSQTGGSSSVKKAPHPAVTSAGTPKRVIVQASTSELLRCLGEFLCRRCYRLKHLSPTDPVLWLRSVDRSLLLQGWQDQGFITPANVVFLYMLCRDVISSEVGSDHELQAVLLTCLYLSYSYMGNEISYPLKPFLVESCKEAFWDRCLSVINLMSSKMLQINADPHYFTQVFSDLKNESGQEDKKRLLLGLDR

As a reminder, the IC50 is the concentration that inhibits the measured activity by half. As to `CC(C)c1cnn2c(NCc3ccccc3-c3nccc4cc(NC(=O)/C=C/CN(C)C)ccc34)nc(N3CCC(N)CC3)nc12` [Compound 11], the IC50 was over 1 µM against CDK5/p25; under 1 µM in the assay with OVCAR-3; over 10 µM in assay [1] (CDK1/CycA2); over 10 µM in assay [1] (CDK1/CycB1); over 10 µM in assay [1] (CDK1/CycE1); over 10 µM in assay [2] (CDK4/CycD1). Also, the IC50 in assay [2] (CDK4/CycD2), in assay [2] (CDK4/CycD3), in assay [3] and in assay [4] was over 10 µM throughout.
